Laboratory results: patent publication US20260235624A1, “PEPTIDES AND THEIR LABELLED DERIVATIVES SUITABLE FOR USE IN THE DIAGNOSIS OF DIABETES OR ITS COMPLICATIONS” (Instytut Medycyny Doswiadczalnej i Klinicznej im. Miroslawa …, priority 2023, published 2026)

Legend:
ADAM17 = assay: Hydrolysis of the ADAM17 substrate in urine samples, increase in fluorescence; assay type: biochemical, human; details: control urine samples Z1-Z10 (healthy subjects); 20 μL of 45 μM substrate, buffer pH 9.0, 37° C., 30 minutes, triplicate
Method: (§1) 20 μL of a 45 μM substrate solution of the peptide of the invention or its labelled derivative were mixed with 100 μL of the measurement buffer (25 mM Tris-Cl, 2.5 μM ZnCl2 and 0.005% Brij-35, pH 9.0) and 80 μL of test urine from a patient diagnosed with diabetes or a healthy person (control).
(§2) When fluorescently labelled derivatives were used, measurements were carried out in triplicate in a 96-well plate using a CLARIOStar plate reader (BMG Labtech, Ortenberg, Germany) at 37° C. for 30 minutes. After this time, the measurement was finished and the increase in fluorescence was determined. If a fluorescence increase of more than 0.0001 U/sec was obtained, the urine sample tested was considered to originate from a person with diabetes.

ADAM10 = assay: Hydrolysis of the ADAM10 substrate in urine samples, increase in fluorescence; assay type: biochemical, human; details: control urine samples Z1-Z10 (healthy subjects); 20 μL of 45 μM substrate, buffer pH 9.0, 37° C., 30 minutes, triplicate
Method: as §1, §2

| Substance | Increase in concentration of labelled degradation products in the urine sample, Mean (ADAM17) | Increase in concentration of labelled degradation products in the urine sample, Mean (ADAM10) |
| --- | --- | --- |
| ABZ-Asn-Tyr-Met-Ala-Leu-Arg-Arg-Tyr(3-NO2)—NH2 | 0.000000 | – |
| ABZ-Lys-Ile-Ile-Asn-Leu-Lys-Arg-Tyr(3-NO2)—NH2 | – | 0.000000 |
